Where two headings read alike, the source gives them in different places.
Legend:
human P2X3 receptor = human P2X3 receptor (Homo sapiens (Human), UniProt P56373); assay: Intracellular calcium measurement (FLIPR, Fluo-4) of antagonist activity at human P2X3 receptors; format: cell-based; conditions: read-out: hP2X3 IC50
In short: (§1)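 Antagonism quantified from peak calcium fluorescence (Fluo-4, FLIPR, 90 sec read) evoked by EC80 α,β-Me-ATP, after a 30 min, 37° C. compound pretreatment in 1% DMSO. Human P2X3- or P2X2/3-expressing cells used; triplicate means fitted for IC50, percent maximal inhibition and Hill coefficient.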

human P2X2/3 receptor = human P2X2/3 receptor (Homo sapiens (Human), UniProt P56373+Q9UBL9); assay: Intracellular calcium measurement (FLIPR, Fluo-4) of antagonist activity at human P2X2/3 receptors; format: cell-based
Sequence of human P2X2/3 receptor (P56373 whole entry): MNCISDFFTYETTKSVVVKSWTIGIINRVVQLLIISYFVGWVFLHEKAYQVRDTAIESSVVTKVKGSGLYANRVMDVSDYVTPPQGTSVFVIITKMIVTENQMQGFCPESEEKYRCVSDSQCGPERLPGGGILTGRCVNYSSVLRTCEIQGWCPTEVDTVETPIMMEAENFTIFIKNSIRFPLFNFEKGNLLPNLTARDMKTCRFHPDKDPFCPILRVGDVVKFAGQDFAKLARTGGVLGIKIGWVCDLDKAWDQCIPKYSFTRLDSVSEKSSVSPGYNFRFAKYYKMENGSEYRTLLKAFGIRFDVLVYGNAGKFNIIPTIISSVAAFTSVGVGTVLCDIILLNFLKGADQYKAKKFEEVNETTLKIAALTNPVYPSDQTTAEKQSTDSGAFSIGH
Sequence of human P2X2/3 receptor (Q9UBL9 whole entry): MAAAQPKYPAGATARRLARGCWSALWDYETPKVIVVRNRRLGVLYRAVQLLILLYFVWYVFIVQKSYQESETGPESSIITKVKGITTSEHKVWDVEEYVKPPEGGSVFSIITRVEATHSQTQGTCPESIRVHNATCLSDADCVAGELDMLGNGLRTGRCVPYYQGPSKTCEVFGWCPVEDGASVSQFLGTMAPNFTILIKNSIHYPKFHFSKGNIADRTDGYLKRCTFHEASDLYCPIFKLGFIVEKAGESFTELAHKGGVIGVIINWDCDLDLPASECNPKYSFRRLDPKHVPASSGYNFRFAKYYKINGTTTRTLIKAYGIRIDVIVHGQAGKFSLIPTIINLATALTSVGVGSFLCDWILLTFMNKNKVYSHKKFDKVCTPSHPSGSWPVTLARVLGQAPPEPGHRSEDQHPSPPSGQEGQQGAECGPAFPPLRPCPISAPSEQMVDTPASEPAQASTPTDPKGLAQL
In short: as §1

[1] = human P2X3, FLIPR calcium assay, agonist α,β-Me-ATP
[2] = human P2X2/3, FLIPR calcium assay, agonist α,β-Me-ATP, read-out: hP2X2/3 IC50

Sequence of human P2X3 receptor (P56373 whole entry): as the sequence (P56373 whole entry) above

IC50 (human P2X3 receptor; [1]) [nM] | IC50 (human P2X2/3 receptor; [2]) [nM] | SMILES | IC50 (human P2X3 receptor) [nM] | IC50 (human P2X2/3 receptor; hP2X2/3 IC50 (nM)) [nM]
196 | 2780 | COCCOc1cc(C(=O)N[C@H](C)c2cnc(C)nc2)cc(-c2ncc(C)s2)c1 [Example 136, 3-(2-Methoxyethoxy)-N-[(1R)-1-(2-methylpyrimidin-5-yl)ethyl]-5-(5-methyl-1,3-thiazol-2-yl)benzamide] | – | –
8 | 962 | Cc1cnc(-c2cc(OC3CCN(C)CC3)cc(C(=O)N[C@H](C)c3cnc(C(F)(F)F)nc3)c2)s1 [Example 139, 3-[(1-Methylpiperidin-4-yl)oxy]-5-(5-methyl-1,3-thiazol-2-yl)-N-{(1R)-1-[2-(trifluoromethyl)pyrimidin-5-yl]ethyl}benzamide] | – | –
33 | 1300 | Cc1cnc(-c2cc(OC3CCN(C(C)C)CC3)cc(C(=O)N[C@H](C)c3cnc(C(F)(F)F)nc3)c2)s1 [Example 140, 3-(5-Methyl-1,3-thiazol-2-yl)-5-{[1-(propan-2-yl)piperidin-4-yl]oxy}-N-{(1R)-1-[2-(trifluoromethyl)pyrimidin-5-yl]ethyl}benzamide] | – | –
43 | 2200 | Cc1cnc(-c2cc(O[C@@H]3CCN(C)C3)cc(C(=O)N[C@H](C)c3cnc(C(F)(F)F)nc3)c2)s1 [Example 141, 3-{[(3R)-1-Methylpyrrolidin-3-yl]oxy}-5-(5-methyl-1,3-thiazol-2-yl)-N-{(1R)-1-[2-(trifluoromethyl)pyrimidin-5-yl]ethyl}benzamide] | – | –
6 | 222 | Cc1cnc(-c2cc(O[C@H]3CCN(C)C3)cc(C(=O)N[C@H](C)c3cnc(C(F)(F)F)nc3)c2)s1 [Example 142, 3-{[(3S)-1-Methylpyrrolidin-3-yl]oxy}-5-(5-methyl-1,3-thiazol-2-yl)-N-{(1R)-1-[2-(trifluoromethyl)pyrimidin-5-yl]ethyl}benzamide] | – | –
84 | 3050 | Cc1cnc(-c2cc(OC3CN(C)C3)cc(C(=O)N[C@H](C)c3cnc(C(F)(F)F)nc3)c2)s1 [Example 143, 3-[(1-Methylazetidin-3-yl)oxy]-5-(5-methyl-1,3-thiazol-2-yl)-N-{(1R)-1-[2-(trifluoromethyl)pyrimidin-5-yl]ethyl}benzamide] | – | –
825 | ≥ 10000 | C#CCOc1cc(C(=O)N[C@@H](C)c2cnc(C(F)(F)F)nc2)cc(-c2ncc(C)s2)c1 [Example 144, 3-(5-Methyl-1,3-thiazol-2-yl)-5-(prop-2-yn-1-yloxy)-N-{(1S)-1-[2-(trifluoromethyl)pyrimidin-5-yl]ethyl}benzamide] | – | –
271 | 4460 | Cc1cnc(-c2cc(OC3CCOCC3)cc(C(=O)N[C@@H](C)c3cnc(C(F)(F)F)nc3)c2)s1 [Example 145, 3-(5-Methyl-1,3-thiazol-2-yl)-5-(tetrahydro-2H-pyran-4-yloxy)-N-{(1S)-1-[2-(trifluoromethyl)pyrimidin-5-yl]ethyl}benzamide] | – | –
45 | 159 | Cc1cnc(-c2cc(OC3CC4(C3)CN(C(=O)OC(C)(C)C)C4)cc(C(=O)N[C@H](C)c3cnc(C(F)(F)F)nc3)c2)s1 [Example 146, tert-butyl 6-[3-(5-methyl-1,3-thiazol-2-yl)-5-({(1R)-1-[2-(trifluoromethyl)pyrimidin-5-yl]ethyl}carbamoyl)phenoxy]-2-azaspiro[3.3]heptane-2-carboxylate] | – | –
6 | 132 | Cc1cnc(-c2cc(O[C@@H]3CCOC3)cc(C(=O)N[C@H](C)c3cnc(C(F)(F)F)cn3)c2)s1 [Example 147, 3-(5-methyl-1,3-thiazol-2-yl)-5-[(3R)-tetrahydrofuran-3-yloxy]-N-{(1R)-1-[5-(trifluoromethyl)pyrazin-2-yl]ethyl}benzamide] | – | –
33 | 794 | Cc1cnc(-c2cc(OC3COC3)cc(C(=O)N[C@H](C)c3ccc(C(F)(F)F)nc3)c2)s1 [Example 148, 3-(5-methyl-1,3-thiazol-2-yl)-5-(oxetan-3-yloxy)-N-{(1R)-1-[6-(trifluoromethyl)pyridin-3-yl]ethyl}benzamide] | – | –
12 | 83 | CC(=O)N1CCC(Oc2cc(C(=O)N[C@H](C)c3cnc(C(F)(F)F)nc3)cc(-c3ncc(C)s3)c2)CC1 [Example 150, 3-[(1-acetylpiperidin-4-yl)oxy]-5-(5-methyl-1,3-thiazol-2-yl)-N-{(1R)-1-[2-(trifluoromethyl)pyrimidin-5-yl]ethyl}benzamide] | – | –
31 | 333 | Cc1cnc(-c2cc(O[C@H]3CCOC3)cc(C(=O)N[C@H](C)c3cnc(C(F)F)nc3)c2)s1 [Example 151, N-{(1R)-1-[2-(difluoromethyl)pyrimidin-5-yl]ethyl}-3-(5-methyl-1,3-thiazol-2-yl)-5-[(3S)-tetrahydrofuran-3-yloxy]benzamide] | – | –
45 | 523 | Cc1cnc(-c2cc(OC3COC3)cc(C(=O)N[C@H](C)c3cnc(C(F)F)nc3)c2)s1 [Example 152, N-{(1R)-1-[2-(difluoromethyl)pyrimidin-5-yl]ethyl}-3-(5-methyl-1,3-thiazol-2-yl)-5-(oxetan-3-yloxy)benzamide] | – | –
27 | 304 | Cc1cnc(-c2cc(O[C@@H]3CCOC3)cc(C(=O)N[C@H](C)c3cnc(C(F)F)nc3)c2)s1 [Example 153, N-{(1R)-1-[2-(difluoromethyl)pyrimidin-5-yl]ethyl}-3-(5-methyl-1,3-thiazol-2-yl)-5-[(3R)-tetrahydrofuran-3-yloxy]benzamide] | – | –
17 | 534 | Cc1cnc(-c2cc(O[C@@H]3CCOC3)cc(C(=O)N[C@H](C)c3ccc(C(F)(F)F)nc3)c2)s1 [Example 157, 3-(5-methyl-1,3-thiazol-2-yl)-5-[(3R)-tetrahydrofuran-3-yloxy]-N-{(1R)-1-[6-(trifluoromethyl)pyridin-3-yl]ethyl}benzamide] | – | –
28 | 1010 | Cc1cnc(-c2cc(OCCn3cncn3)cc(C(=O)N[C@H](C)c3ccc(C(F)(F)F)nc3)c2)s1 [Example 160, 3-(5-methyl-1,3-thiazol-2-yl)-5-[2-(1H-1,2,4-triazol-1-yl)ethoxy]-N-{(1R)-1-[6-(trifluoromethyl)pyridin-3-yl]ethyl}benzamide] | – | –
32 | 632 | Cc1cnc(-c2cc(OC3COC3)cc(C(=O)N[C@H](C)c3ccc(C(F)(F)F)nn3)c2)s1 [Example 161, 3-(5-methyl-1,3-thiazol-2-yl)-5-(oxetan-3-yloxy)-N-{(1R)-1-[6-(trifluoromethyl)pyridazin-3-yl]ethyl}benzamide] | – | –
60 | 1110 | Cc1cnc(-c2cc(OC3COC3)cc(C(=O)N[C@H](C)c3ccc(C(F)F)nc3)c2)s1 [Example 164] | – | –
81 | 1920 | Cc1cnc(-c2cc(O[C@H]3C[C@H](N(C)C)C3)cc(C(=O)N[C@H](C)c3cnc(C(F)(F)F)nc3)c2)s1 [Example 165, 3-{[trans-3-(dimethylamino)cyclobutyl]oxy}-5-(5-methyl-1,3-thiazol-2-yl)-N-{(1R)-1-[2-(trifluoromethyl)pyrimidin-5-yl]ethyl}benzamide] | – | –
40 | 461 | Cc1cnc(-c2cc(O[C@@H]3CCOC3)cc(C(=O)NCc3cnc(C(F)(F)F)nc3)c2)s1 [Example 166, 3-(5-methyl-1,3-thiazol-2-yl)-5-[(3R)-tetrahydrofuran-3-yloxy]-N-{[2-(trifluoromethyl)pyrimidin-5-yl]methyl}benzamide] | – | –
72 | 893 | Cc1cnc(-c2cc(OC3COC3)cc(C(=O)NCc3cnc(C(F)(F)F)nc3)c2)s1 [Example 167, 3-(5-methyl-1,3-thiazol-2-yl)-5-(oxetan-3-yloxy)-N-{[2-(trifluoromethyl)pyrimidin-5-yl]methyl}benzamide] | – | –
– | – | Cc1cnc(-c2cc(O[C@H]3CN4CCC3CC4)cc(C(=O)N[C@H](C)c3cnc(C(F)(F)F)nc3)c2)s1 [Example 168, 3-[(3R)-1-azabicyclo[2.2.2]oct-3-yloxy]-5-(5-methyl-1,3-thiazol-2-yl)-N-{(1R)-1-[2-(trifluoromethyl)pyrimidin-5-yl]ethyl}benzamide] | 19 | 1600
9 | 70 | CCc1cnc(-c2cc(OC3COC3)cc(C(=O)N[C@H](C)c3cnc(C(F)(F)F)nc3)c2)s1 [Example 169, 3-(5-ethyl-1,3-thiazol-2-yl)-5-(oxetan-3-yloxy)-N-{(1R)-1-[2-(trifluoromethyl)pyrimidin-5-yl]ethyl}benzamide] | – | –
165 | 2020 | Cc1ccc(Oc2cc(C(=O)N[C@H](C)c3cnc(C(F)(F)F)nc3)cc(-c3ncc(C)s3)c2)nn1 [Example 170, 3-[(6-methylpyridazin-3-yl)oxy]-5-(5-methyl-1,3-thiazol-2-yl)-N-{(1R)-1-[2-(trifluoromethyl)pyrimidin-5-yl]ethyl}benzamide] | – | –
26 | 573 | Cc1cnc(-c2cc(O[C@@H]3CCOC3)cc(C(=O)N[C@H](C)c3ccc(C(F)F)nc3)c2)s1 [Example 171, N-{(1R)-1-[6-(difluoromethyl)pyridin-3-yl]ethyl}-3-(5-methyl-1,3-thiazol-2-yl)-5-[(3R)-tetrahydrofuran-3-yloxy]benzamide] | – | –

SMILES | IC50 (human P2X3 receptor; [1]) [nM] | IC50 (human P2X2/3 receptor; [2]) [nM] | IC50 (human P2X3 receptor) [nM] | IC50 (human P2X2/3 receptor; hP2X2/3 IC50 (nM)) [nM]
Cc1cnc(-c2cc(OC3CCN(C(=O)OC(C)(C)C)CC3)cc(C(=O)N[C@H](C)c3cnc(C(F)(F)F)nc3)c2)s1 [Example 137, tert-Butyl 4-[3-(5-methyl-1,3-thiazol-2-yl)-5-({(1R)-1-[2-(trifluoromethyl)pyrimidin-5-yl]ethyl}carbamoyl)phenoxy]piperidine-1-carboxylate] | – | 328 | 26 | –
Cc1cnc(-c2cc(OC34CCN(CC3)CC4)cc(C(=O)N[C@H](C)c3cnc(C(F)(F)F)nc3)c2)s1 [Example 149] | 21 | 936 | – | –

Reference: US10174016B2 (BAYER AKTIENGESELLSCHAFT, priority 2014, dated 2019)
